Laboratory results reported in paper PMC3501516, “Anti-Diabetic Efficacy and Impact on Amino Acid Metabolism of GRA1, a Novel Small-Molecule Glucagon Receptor Antagonist” (PLoS ONE, 2012).
Marks after values point to notes of the source that are not given here.

Experiments:
[1] = molecular target: T1, human GCGR (hGCGR) (Homo sapiens, UniProt P47871); assay: Inhibition of glucagon-stimulated cAMP production in intact CHO cells expressing human GCGR; assay type: cell-based
T1 construct: expressed in transfected cells
From the text: Transfected Chinese hamster ovary (CHO) cell lines were acquired and maintained as previously described, [20]. These included separate cell lines stably expressing human GCGR (hGCGR), mouse GCGR, rhesus GGCR, glucose-dependent insulinotropic peptide receptor (GIPR), GLP-1 receptor (GLP-1R), pituitary adenylate cyclase-activating polypeptide receptor type 1 (PAC1R), and vasoactive adenylate cyclase-activating polypeptide receptor type 2 (VPAC2R). Inhibition of glucagon binding to hGCGR was assayed in cell membranes prepared from the line of CHO cells that expressed the hGCGR. Functional antagonism was assayed by measuring the production of cAMP in intact CHO cells stimulated by agonists specific for their cognate receptors (i.e., glucagon for GCGR-expressing cell lines, GIP for the GIPR-expressing line, etc.). Primary human hepatocytes were obtained from In Vitro Technologies (Baltimore, MD) and glucagon-stimulated glycogenolysis was studied in these as previously described.

[2] = test system: hGCGR mouse; assay: Blunting of glucagon-induced blood glucose excursion in hGCGR mouse; assay type: in vivo; conditions: vehicle 1393±179
Experimental: (§1) In mouse studies of glucagon-induced excursions in blood glucose, animals were dosed orally with vehicle (10 mL/kg 0.5% aqueous methylcellulose) or GRA1 one hour prior to challenge by intraperitoneal injection of 15 µg/kg glucagon (Eli Lilly, Indianapolis, IN) or vehicle, [20]. In the studies in monkey, GRA1 or vehicle was administered to chair-restrained animals via a nasogastric tube 4 h prior to intramuscular injection of 15 µg/kg glucagon. Blood glucose measurements were made using a OneTouch glucometer (Lifescan, Milpitas, CA).
(§2) Figure 3 Blunting of glucagon-induced blood glucose excursions by GRA1 treatment in the (A) hGCGR mouse and (B) rhesus monkey. In (A), mice (n = 8) were administered vehicle or 3, 10 or 30 mg/kg GRA1, then challenged 1 h later (time 0) by intraperitoneal injection of 15 µg/kg glucagon or vehicle. Pharmacokinetic analysis determined that these animals had mean plasma GRA1 concentrations of 0.4, 0.9, and 4.7 µM, respectively, at 1 h postdose. In (B), monkeys (n = 4) were administered 1 mg/kg GRA1 4 h prior to intramuscular injection of 15 µg/kg glucagon or vehicle. At 1 h postdose, the mean plasma GRA1 concentration in these animals was 0.2 µM. *p<0.05; **p<0.01; and ***p<0.001 vs. glucagon-treated control animals.

[3] = test system: rhesus monkey; assay: Blunting of glucagon-induced blood glucose excursion in rhesus monkey; assay type: in vivo; conditions: 1 mg/kg 4 h before 15 µg/kg glucagon i.m.
Experimental: as §1, §2

[4] = test system: DIO hGCGR mice; assay: Chronic GRA1 treatment of diet-induced obese (DIO) hGCGR mice; assay type: in vivo, hGCGR mouse; conditions: for Free fatty acid, terminal plasma / Insulin, terminal plasma / LDL cholesterol, terminal plasma / Glucagon, terminal plasma / Triglyceride, terminal plasma / Non-LDL cholesterol, terminal plasma / Cholesterol, terminal plasma: 10 weeks; for Free fatty acid, terminal plasma: control 1.04±0.13; for Insulin, terminal plasma: control 8.5±2.0; for LDL cholesterol, terminal plasma: control 19.6±2.3; for Glucagon, terminal plasma: control 164±24; for Triglyceride, terminal plasma: control 181±11; for Non-LDL cholesterol, terminal plasma: control 205±12; for Cholesterol, terminal plasma: control 233±15
From the text: (§3) The present study made use of a line of hGCGR-expressing mouse (“hGCGR mouse”) generated previously by substituting the hGCGR gene for the mouse GCGR gene. These mice were crossed with C57BL/6J.ob/+ mice (Jackson Laboratories, Bar Harbor, ME) to obtain an hGCGR.ob/+ mouse line. The hGCGR.ob/+ mice were then intercrossed to obtain hGCGR.ob/ob, hGCGR.ob/+, and hGCGR.+/+ mice (with the hGCGR.ob/+ and hGCGR.+/+ mice serving as littermate controls). […] obese (DIO) hGCGR mice were generated by maintaining hGCGR mice on a high-fat diet (HFD) in which 45–60% of calories were in fat (Product S3282, Bio-Serv, Frenchtown, NJ). High-fat-diet-streptozotocin-treated (HFD/STZ) diabetic mice were generated in-house as previously described.
(§4) Animals were dosed chronically with GRA1 and the DPP-4 inhibitor des-fluoro-sitagliptin by administering these agents as food admixtures. The admixtures were prepared in-house and by Research Diets (New Brunswick, NJ), with drug concentrations adjusted weekly on the basis of average food consumption and animal weight to provide targeted daily doses. In the GRA1 experiments, the targeted doses were 3, 6, 10, and 30 mg/kg•day. In des-fluoro-sitagliptin experiments, the targeted dose was 200 mg/kg•day, a relatively high amount necessary because this compound has a half-life in rodents of 1–2 h.
(§5) Plasma glucagon and active GLP-1 were measured using commercial ELISA kits (Linco Research Immunoassay, St. Charles, MO). […] Plasma insulin was determined by ELISA with a commercial kit (ALPCO Diagnostics, Windham, NH). Plasma concentrations of glycated hemoglobin A1c (HbA1c) were measured using a Micromat II test kit from Bio-Rad Laboratories (Hercules, CA). Total cholesterol, low-density lipoprotein cholesterol (LDL-c) and non-LDL-c, and aspartate aminotransferase were measured using a Roche P Modular Clinical Chemistry analyzer (Indianapolis, IN).
(§6) Figure 4 GRA1 lowers blood glucose in the DIO hGCGR and hGCGR.ob/ob mouse. Mean (±SEM) blood glucose concentrations in (A) non-fasted and (B) fasted DIO hGCGR mice treated with approximately 3 and 10 mg/kg·day GRA1 provided as a food admixture. (Additional data from this study are in Table 2). (C) Mean (±SEM) blood glucose concentrations in the hGCGR.ob/ob mouse following single oral doses of 1, 3, or 10 mg/kg GRA1 or vehicle. (D) Mean (±SEM) non-fasted blood glucose concentrations in hGCGR.ob/ob mice treated for 2–8 weeks with control diet or 10 mg/kg·day GRA1 administered as diet admixture. *p<0.05, **p<0.01, and ***p<0.001 in timepoint-matched comparisons with controls; n = 8 in each group.

[5] = test system: hGCGR.ob/ob mice; assay: Antihyperglycemic efficacy in hGCGR.ob/ob mice (acute and chronic); assay type: in vivo, hGCGR.ob/ob mouse
From the text: as §3
Acute glucose lowering was studied in non-fasted hGCGR.ob/ob mice and HFD/STZ mice administered single doses p.o. of 1, 3 and 10 mg/kg GRA1 in 10 mL/kg 0.5% aqueous methylcellulose. Animals were fasted during the interval between dosing and the final blood glucose measurement. Glucose was measured in blood from tail bleeds using a OneTouch glucometer. In the experiments with hGCGR HFD/STZ mice, treatment groups were matched with respect to body weight and blood glucose levels.
as §4, §5, §6

T1 sequence (P47871 26-477): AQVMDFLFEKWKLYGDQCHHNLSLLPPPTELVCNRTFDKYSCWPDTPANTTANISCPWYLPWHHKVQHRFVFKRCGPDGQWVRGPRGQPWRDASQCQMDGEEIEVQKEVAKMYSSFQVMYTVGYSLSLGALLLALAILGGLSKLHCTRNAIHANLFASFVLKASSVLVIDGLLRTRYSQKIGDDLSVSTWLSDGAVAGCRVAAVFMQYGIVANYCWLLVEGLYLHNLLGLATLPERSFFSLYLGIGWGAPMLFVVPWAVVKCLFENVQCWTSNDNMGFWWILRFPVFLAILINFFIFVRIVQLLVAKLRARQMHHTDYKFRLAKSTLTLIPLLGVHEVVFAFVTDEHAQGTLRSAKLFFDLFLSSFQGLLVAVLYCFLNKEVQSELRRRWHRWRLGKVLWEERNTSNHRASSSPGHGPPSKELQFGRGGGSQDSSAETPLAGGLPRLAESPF

COc1ccc2cc(-c3cc(-c4cc(C(F)(F)F)ccc4F)nn3[C@@H](C)c3ccc(C(=O)NCCC(=O)O)cc3)ccc2c1 [GRA1, N-[4-((1S)-1-{3-(2-fluoro-5-trifluoromethylphenyl)-5-[6-methoxynaphth-2-yl]-1H-pyrazol-1-yl}ethyl)benzoyl]-β-alanine]
IC50 [1]: 12 nM
Baseline-subtracted mean AUC0–50 of glucagon-stimulated blood glucose excursion ([2]; 3 mg/kg p.o. 1 h before 15 µg/kg glucagion i.p.): 812 ± 122 mg·min/dL
Baseline-subtracted mean AUC0–50 of glucagon-stimulated blood glucose excursion ([2]; 10 mg/kg p.o. 1 h before 15 µg/kg glucagon i.p.): 543 ± 68 mg·min/dL
Baseline-subtracted mean AUC0–50 of glucagon-stimulated blood glucose excursion ([2]; 30 mg/kg p.o. 1 h before 15 µg/kg glucagon i.p.): 476 ± 64 mg·min/dL
Reduction of magnitude of glucagon-stimulated blood glucose excursion [3]: about 50%
Effect on blood glucose ([4]; 1–10 weeks, 3 or 10 mg/kg•day): significant, sustained reductions in blood glucose
Food intake and body weight ([4]; 3 or 10 mg/kg•day (data not shown)): not affected
Increase of plasma glucagon ([4]; 3 or 10 mg/kg•day (either dose)): approximately 2 fold
Free fatty acid, terminal plasma ([4]; 3 mg/kg•day): 0.84 ± 0.08 mM
Insulin, terminal plasma ([4]; 3 mg/kg•day): 4.2 ± 1.1 ng/mL
LDL cholesterol, terminal plasma ([4]; 3 mg/kg•day): 25.4±2.9 mg/dLl
Glucagon, terminal plasma ([4]; 3 mg/kg•day): 374±53* pg/mL
Triglyceride, terminal plasma ([4]; 3 mg/kg•day): 141±13* mg/dL
Non-LDL cholesterol, terminal plasma ([4]; 3 mg/kg•day): 216 ± 16 mg/dL
Cholesterol, terminal plasma ([4]; 3 mg/kg•day): 255 ± 17 mg/dL
Free fatty acid, terminal plasma ([4]; 10 mg/kg•day): 0.69±0.04* mM
Insulin, terminal plasma ([4]; 10 mg/kg•day): 5.7 ± 1.4 ng/mL
LDL cholesterol, terminal plasma ([4]; 10 mg/kg•day): 19.4±2.4 mg/dLl
Glucagon, terminal plasma ([4]; 10 mg/kg•day): 343 ± 85 pg/mL
Triglyceride, terminal plasma ([4]; 10 mg/kg•day): 122±10** mg/dL
Non-LDL cholesterol, terminal plasma ([4]; 10 mg/kg•day): 186 ± 7 mg/dL
Cholesterol, terminal plasma ([4]; 10 mg/kg•day): 213 ± 8 mg/dL
Islet morphology and ratio of insulin-positive to glucagon-positive cells (pancreas immunohistochemistry) ([4]; treated vs control (data not shown)): no significant differences
Non-fasted blood glucose lower than control diet ([5]; 10 mg/kg•day, 2, 4 and 8 weeks): 40–50%
Food intake, body weight, fasting insulin levels vs control diet ([5]; 10 mg/kg•day, 8 weeks (data not shown)): No differences
Mean fasted blood glucose ([5]; 10 mg/kg•day, 8 weeks, control diet 189±36): 90.8 ± 7.8 mg/dL
Mean plasma glucagon ([5]; 10 mg/kg•day, 8 weeks, control diet 959±90): 1356 ± 113 pg/mL
Total GLP-1 ([5]; 10 mg/kg•day, 8 weeks, controls 15.6±2.0): 26.5 ± 3.0 pM
Effect on blood glucose, single dose ([5]; single doses of 3 and 10 mg/kg vs vehicle): lowered blood glucose significantly
